# Starred links: 1 amine or outer side, 2 acyl side, 3 side chain; linkers in the order of their positions; H or OH if unused. Positions of bridges follow the written chain, without caps; N, C: chain ends. Non-standard residues stand in square brackets, D forms with d. Residues, ends and D or L forms follow the SMILES beside them. Chains are numbered I, II in the order given. Actinocin(9to1) = Cc1c2oc3c(C)ccc(C(=O)[*:1])c3nc-2c(C(=O)[*:2])c(N)c1=O; NMeV = CN[C@H](C(=O)O)C(C)C; Nle = CCCC[C@H](N)C(=O)O; Sar = CNCC(=O)O
# Test system: HeLa (human cancer) cells
# Test: Cytological dose-response profiling by automated fluorescence microscopy (KS statistic z-scores, 93 descriptors)
# Assay type: cell-based
# Settings: HeLa cells, 20 hrs, thirteen 3-fold dilutions; Y = profile response above signal threshold
# Protocol: The known drug set was chosen to cover common mechanisms of toxicity or therapeutic action in cancer and other diseases, and to include several groups with a common target (macromolecule or pathway) but unrelated structures. We analyzed thirteen 3-fold dilutions of each drug, covering a final concentration range on cells from micromolar to picomolar. (Table 3 and Materials & Methods). HeLa (human cancer) cells were cultured in 384-well plates to near confluence, treated with drugs for 20 hrs, fixed, and stained with fluorescent probes for various cell components and processes. We chose 11 distinct probes that covered a range of cell biology, multiplexing a DNA stain and two antibodies per well (the probe sets are: (SC35, anillin), (α-tubulin, actin), (phospho-p38, phospho-ERK), (p53, cFos), (phospho-CREB, calmodulin)). Using automated fluorescence microscopy, we collected images of up to ˜8000 cells from each well. 26 wells on each plate were treated only with DMSO to generate a control population. The experiment was performed twice in parallel to provide a replicate dataset. Image segmentation procedures were used to automatically identify nuclei and nuclear organelles, and cytoplasmic regions were approximated as an annulus surrounding each identified nucleus (FIG. 31A). For each cell, region, and probe, a set of descriptors was measured. These included measures of size, shape, and intensity, as well as ratios of intensities between regions (93 descriptors total, Table S3).
# For profiling studies, it is useful to reduce each population of descriptor values to a single number. […] We devised a measure based on the Kolmogorov-Smirnov (KS) statistic, allowing nonparametric comparison of experimental and control distributions from the same plate (FIGS. 31B and 35). […] In particular, the relationship between z-score and the original physical measure may be non-linear.
# Cell culture. 20 hours before compound addition, Hela cells grown in […] dishes were trypsinized, resuspended in DMEM supplemented with 10% FCS and 10 ug/mL penicillin/streptomycin, and plated in 384-well plates at an initial density of 3,000 cells per well, 40 uL per well. Compounds were purchased from Sigma (St. Louis, MO), Calbiochem (EMD Biosciences, San Diego, Calif.) and Tocris (Elliksville, MO) and are listed in Table 2. Compound stocks were prepared in DMSO and then arrayed on 384-well plates in 16 consecutive 1:3 serial dilutions in DMSO as outlined in Table 3. The highest and two lowest dilutions (rows A, 0 and P) were not used for subsequent analysis as the wells due to persistent edge effects, leaving us with a series of 13 dilutions. Each stock was diluted 16-fold in warmed culture medium, and 8 μl of this solution was added to the plated cells, resulting in a 96-fold final dilution. All conditions were performed in duplicate in separate plates. Cells were incubated at 37° C. for 20 hours, then fixed in 3% formaldehyde in PBS. All liquid handling was performed using a programmed TekBench (TekCel, Hopkinton, Mass.).
# Markers. Five sets of markers were stained by standard immunofluorescence methods in this study.
row,Compound,Used in clustering (FIG. 33)
1,"Cc1cc(O)c2c(c1)C(=O)c1cc(O)cc(O)c1C2=O [Compound 22, Emodin]",Y
2,"Cc1c2oc3c(C)ccc(C(=O)N[C@@H]4C(=O)N[C@H](C(C)C)C(=O)N5CCC[C@H]5C(=O)N(C)CC(=O)N(C)[C@@H](C(C)C)C(=O)O[C@@H]4C)c3nc-2c(C(=O)N[C@@H]2C(=O)N[C@H](C(C)C)C(=O)N3CCC[C@H]3C(=O)N(C)CC(=O)N(C)[C@@H](C(C)C)C(=O)O[C@@H]2C)c(N)c1=O [Compound 4, Actinomycin D] (I: T[dV]P[Sar][NMeV] / II: T[dV]P[Sar][NMeV]; ester I:1-I:C, II:1-II:C; linker I:N-II:N via Actinocin(9to1))",Y
3,"C=C1[C@@H](C)[C@H]2[C@H](Cc3ccccc3)NC(=O)[C@]23[C@H](OC(C)=O)/C=C/[C@@](C)(O)C(=O)[C@@H](C)C/C=C/[C@H]3[C@@H]1O [Compound 16, Cytochalasin D]",Y
4,"CN1CCN(C2=Nc3cc(Cl)ccc3Nc3ccccc32)CC1 [Compound 64, Clozapine]",Y
5,"O=C1Cc2c([nH]c3ccc([N+](=O)[O-])cc23)-c2ccccc2N1 [Compound 6, Alsterpaullone]",Y
6,"C[S+]([O-])c1ccc(-c2nc(-c3ccncc3)c(-c3ccc(F)cc3)[nH]2)cc1 (centres unmarked) [Compound 80, SB203580]",Y
7,"CC[C@H]1/C=C/C=C/C[C@@H](C)[C@H](O)[C@@](C)(O)C(=O)[C@@H](C)[C@H](O)[C@@H](C)C(=O)[C@@H](C)[C@H](O)[C@@H](C)/C=C/C(=O)O[C@@H]2[C@H](C)[C@H](CC1)O[C@]1(CC[C@H](C)[C@H](C[C@@H](C)O)O1)[C@H]2C [Compound 90, Oligomycin]",Y
8,"CCC(C)(C)C(=O)O[C@H]1C[C@@H](C)C=C2C=C[C@H](C)[C@H](CC[C@@H]3C[C@@H](O)CC(=O)O3)[C@H]21 [Compound 70, Simavastatin]",Y
9,"COc1ccc(C[C@H]2NC[C@H](O)[C@H]2OC(C)=O)cc1 [Compound 7, Anisomycin]",Y
10,Oxamflatin [Compound 78],Y
11,"CNc1ccc2oc(C[C@H]3O[C@@]4(CC[C@H]3C)O[C@H]([C@H](C)C(=O)c3ccc[nH]3)[C@H](C)C[C@H]4C)nc2c1C(=O)O [Compound 2, A23187 free acid]",Y
12,"COc1ccc(C[C@H](N)C(=O)N[C@H]2[C@@H](O)[C@H](n3cnc4c(N(C)C)ncnc43)O[C@@H]2CO)cc1 [Compound 45, Puromycin]",Y
13,"C[C@H]1CCC/C=C/[C@@H]2C[C@H](O)C[C@H]2[C@H](O)/C=C/C(=O)O1 [Compound 8, Brefeldin A]",Y
14,"C[C@@]1(CO)[C@H](O)CC[C@@]2(C)[C@H]1CC[C@H]1C[C@@H]3C[C@@]12CC[C@]3(O)CO [Compound 81, Aphidicolin]",Y
15,"CCOC(=O)C1=C(C)NC(=S)NC1c1cccc(O)c1 (centres unmarked) [Compound 39, Monastrol]",Y
16,"COc1cccc(-c2cc(=O)c3ccccc3o2)c1N [Compound 63, PD98059]",Y
17,"COc1cc([C@@H]2c3cc4c(cc3[C@H](O)[C@H]3COC(=O)[C@H]23)OCO4)cc(OC)c1OC [Compound 44, Podophyllotoxin]",Y
18,"O=C1Nc2ccccc2/C1=C1/Nc2ccccc2/C1=N\O [Compound 32, Indirubin monoxime]",Y

row,Compound,Used in clustering (FIG. 33)
1,"CC1=C(/C=C/C(C)=C/C=C/C(C)=C/C(=O)O)C(C)(C)CCC1 [Compound 48, Retinoic acid (trans)]",Y
2,"C[C@@H]1C[C@H]2[C@@H]3CCC4=CC(=O)C=C[C@]4(C)[C@@]3(F)[C@@H](O)C[C@]2(C)[C@@]1(O)C(=O)CO [Compound 19, Dexamethasone]",Y
3,"C/C1=C\[C@H](C)C[C@H](C)OC(=O)C[C@H](c2ccc(O)cc2)NC(=O)[C@@H](Cc2c(Br)[nH]c3ccccc23)N(C)C(=O)[C@H](C)NC(=O)[C@@H](C)C1 [Compound 34, Jasplakinolide]",Y
4,"COc1cccc2c1C(=O)c1c(O)c3c(c(O)c1C2=O)C[C@@](O)(C(=O)CO)C[C@@H]3O[C@H]1C[C@H](N)[C@H](O)[C@H](C)O1 [Compound 20, Doxorubicin]",Y
5,"CCCC[C@@H](C=O)NC(=O)[C@H](CC(C)C)NC(=O)[C@H](CC(C)C)NC(C)=O [Compound 5, N-acetyl-Leu-Leu-norleucinal] (Ac-Leu-Leu-[Nle]-aldehyde)",Y
6,"CN[C@@H]1C[C@H]2O[C@@](C)([C@@H]1OC)n1c3ccccc3c3c4c(c5c6ccccc6n2c5c31)C(=O)NC4 [Compound 51, Staurosporine]",Y
7,"COC(=O)Nc1nc2ccc(C(=O)c3cccs3)cc2[nH]1 [Compound 91, Nocodazole]",Y
8,"COc1cc2c(c(OC)c1OC)-c1ccc(OC)c(=O)cc1[C@@H](NC(C)=O)CC2 [Compound 13, Colchicine]",Y
9,"CN(Cc1cnc2nc(N)nc(N)c2n1)c1ccc(C(=O)N[C@@H](CCC(=O)O)C(=O)O)cc1 [Compound 83, Methotrexate]",Y
10,"CC[C@H](C)C(=O)O[C@H]1CCC=C2C=C[C@H](C)[C@H](CC[C@@H]3C[C@@H](O)CC(=O)O3)[C@H]21 [Compound 37, Mevastatin]",Y
11,"C/C(=C\c1csc(C)n1)[C@@H]1C[C@@H]2O[C@]2(C)CCC[C@H](C)[C@H](O)[C@@H](C)C(=O)C(C)(C)[C@@H](O)CC(=O)O1 [Compound 77, Epothilone B]",Y
12,Tunicamycin [Compound 55],Y
13,"CC[C@]1(O)C[C@@H]2CN(CCc3c([nH]c4ccccc34)[C@@](C(=O)OC)(c3cc4c(cc3OC)N(C)[C@H]3[C@@](O)(C(=O)OC)[C@H](OC(C)=O)[C@]5(CC)C=CCN6CC[C@]43[C@@H]65)C2)C1 [Compound 57, Vinblastine]",Y
14,"C[C@@H]1C[C@@H]([C@H](O)CC2CC(=O)NC(=O)C2)C(=O)[C@@H](C)C1 [Compound 14, Cycloheximide]",Y
15,"CC(=O)O[C@H]1C(=O)[C@@]2(C)[C@H]([C@H](OC(=O)c3ccccc3)[C@]3(O)C[C@H](OC(=O)[C@H](O)[C@@H](NC(=O)c4ccccc4)c4ccccc4)C(C)=C1C3(C)C)[C@]1(OC(C)=O)CO[C@@H]1C[C@@H]2O [Compound 53, Taxol]",Y
16,"CCC(=O)CCCCC[C@@H]1NC(=O)[C@H]2CCCCN2C(=O)[C@H]([C@@H](C)CC)NC(=O)[C@H](Cc2cn(OC)c3ccccc23)NC1=O [Compound 76, Apicidin]",Y
17,"CC(/C=C/C(=O)NO)=C\[C@@H](C)C(=O)c1ccc(N(C)C)cc1 [Compound 54, Trichostatin]",Y

# Source: US20060154236A1, “Computer-assisted analysis” (priority 2004, published 2006)
